In ChEMBL document CHEMBL1201862, “PubChem BioAssay data set” (2004):
“And” between values parts separate entries of the source, which are not always exact repeats. Equal values may be shown once. The source made the active and inactive calls.

How the values were obtained:
[1] = inhibition of ARNT PAS-B/TACC3 complex formation – biochemical, AlphaScreen, cherry-picked samples, confirmation (AID 651703); assay type: functional, Homo sapiens;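 note: His-tagged ARNT PAS-B domain paired with GST-TACC3 E629A dimer coactivator fragment; potency of inhibitors that break up the complex and lower AlphaScreen signal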
[2] = molecular target: T1, Endoribonuclease toxin MazF (Escherichia coli K-12, UniProt P0AE70); test: activation of MazEF endoribonuclease cleavage – biochemical, fluorescence, single-stranded RNA substrate, uHTS hits, dose response (AID 588481); assay type: functional
T1 sequence (P0AE70 whole entry): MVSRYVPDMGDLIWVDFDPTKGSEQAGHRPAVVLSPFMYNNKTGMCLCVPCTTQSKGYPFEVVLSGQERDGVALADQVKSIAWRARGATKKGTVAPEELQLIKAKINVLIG

[3] = molecular target: T2, Sentrin-specific protease 1 (Homo sapiens, UniProt Q9P0U3); test: Dose response confirmation of small molecule inhibitors of the catalytic domain of the SUMO protease, SENP1 in a FRET assay.; assay type: functional; conditions: read-out: IC50_Mean
T2 sequence (Q9P0U3 whole entry): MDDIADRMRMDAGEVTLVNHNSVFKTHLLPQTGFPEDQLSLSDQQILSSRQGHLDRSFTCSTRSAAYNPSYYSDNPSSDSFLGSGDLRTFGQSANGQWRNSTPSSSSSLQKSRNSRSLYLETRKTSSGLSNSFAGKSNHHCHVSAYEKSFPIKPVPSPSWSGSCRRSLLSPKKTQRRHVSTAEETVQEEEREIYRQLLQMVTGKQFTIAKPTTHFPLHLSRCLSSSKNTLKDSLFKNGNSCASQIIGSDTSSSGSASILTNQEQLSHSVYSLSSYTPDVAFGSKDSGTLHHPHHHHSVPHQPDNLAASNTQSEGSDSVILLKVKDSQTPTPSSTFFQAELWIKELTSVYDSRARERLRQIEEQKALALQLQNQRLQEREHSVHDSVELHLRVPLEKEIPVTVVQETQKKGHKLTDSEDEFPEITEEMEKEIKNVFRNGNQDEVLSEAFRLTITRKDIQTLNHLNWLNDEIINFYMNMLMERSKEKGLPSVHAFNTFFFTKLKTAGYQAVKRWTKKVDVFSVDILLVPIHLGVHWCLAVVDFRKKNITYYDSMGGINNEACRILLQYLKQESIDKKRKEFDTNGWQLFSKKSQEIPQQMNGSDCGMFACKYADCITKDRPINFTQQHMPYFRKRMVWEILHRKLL

[4] = molecular target: T2, Sentrin-specific protease 1; test: SENP1 catalytic domain blockers, concentration series – biochemical, kinetic FRET, dose response (AID 651697); assay type: functional; conditions: read-out: IC50_Mean
[5] = molecular target: T1, Endoribonuclease toxin MazF; test: substrate-only fluorescence increase artefacts – biochemical, single-stranded RNase substrate, counter-screen for MazEF activator project, dose response (AID 588502); assay type: functional
[6] = molecular target: Long-chain-fatty-acid--AMP ligase FadD28 (Mycobacterium tuberculosis, UniProt P9WQ59); test: Fluorescence polarization aasay to screen for inhibitors that compete for the binding of FadD28 to a bisubstrate Measured in Biochemical System Using Plate Reader - 2147-01_Inhibitor_Dose_CherryPick_Activity.; assay type: functional, Mycobacterium tuberculosis H37Rv
Chain of Long-chain-fatty-acid--AMP ligase FadD28 (P9WQ59 whole entry, the tested form may be a part): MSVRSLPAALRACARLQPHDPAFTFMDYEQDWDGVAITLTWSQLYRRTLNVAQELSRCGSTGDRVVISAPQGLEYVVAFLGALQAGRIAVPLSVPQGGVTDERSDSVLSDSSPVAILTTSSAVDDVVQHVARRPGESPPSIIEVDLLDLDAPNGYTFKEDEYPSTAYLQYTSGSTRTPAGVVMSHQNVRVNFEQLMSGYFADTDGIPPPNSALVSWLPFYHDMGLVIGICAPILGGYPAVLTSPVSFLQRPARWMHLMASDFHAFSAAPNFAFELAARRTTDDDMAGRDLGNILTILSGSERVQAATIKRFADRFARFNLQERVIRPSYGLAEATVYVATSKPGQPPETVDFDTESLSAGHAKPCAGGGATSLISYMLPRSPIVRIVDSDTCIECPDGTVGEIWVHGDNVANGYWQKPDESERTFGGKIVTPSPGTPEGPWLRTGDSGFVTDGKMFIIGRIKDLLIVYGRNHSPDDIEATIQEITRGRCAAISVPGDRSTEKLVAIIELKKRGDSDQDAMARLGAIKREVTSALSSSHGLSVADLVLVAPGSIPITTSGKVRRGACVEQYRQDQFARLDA

[7] = molecular target: Hepatocyte nuclear factor 4-alpha (Homo sapiens, UniProt P41235); assay type: functional, cell-based;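 note: biochemical luminescence-based dose-response counterscreen measuring inhibition of HNF4 dimerization, run alongside a screen for blockers of ABHD5–perilipin-5 interaction; split luciferase complementation of HNF4 fusion proteins in cell lysate measuring dimerization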
Chain of Hepatocyte nuclear factor 4-alpha (P41235 whole entry, the tested form may be a part): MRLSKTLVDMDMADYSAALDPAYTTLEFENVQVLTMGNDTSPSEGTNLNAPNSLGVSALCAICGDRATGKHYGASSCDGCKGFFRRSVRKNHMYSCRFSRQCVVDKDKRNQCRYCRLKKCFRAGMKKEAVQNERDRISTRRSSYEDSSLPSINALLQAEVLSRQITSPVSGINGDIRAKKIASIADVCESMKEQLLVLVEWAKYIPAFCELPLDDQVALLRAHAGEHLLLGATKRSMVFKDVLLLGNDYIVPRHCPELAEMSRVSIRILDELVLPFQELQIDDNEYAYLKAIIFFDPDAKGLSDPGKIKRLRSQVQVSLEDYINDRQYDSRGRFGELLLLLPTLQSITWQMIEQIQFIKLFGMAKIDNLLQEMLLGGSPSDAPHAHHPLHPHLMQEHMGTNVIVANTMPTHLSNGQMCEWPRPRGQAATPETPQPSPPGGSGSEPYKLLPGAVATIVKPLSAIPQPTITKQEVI

[8] = molecular target: Dual specificity protein phosphatase 3 (Homo sapiens, UniProt P51452); test: VHR phosphatase inhibition, dose response, selectivity assay for STEP inhibitor project, biochemical (AID 602374); assay type: functional; conditions: read-out: IC50_Mean
Chain of Dual specificity protein phosphatase 3 (P51452 whole entry): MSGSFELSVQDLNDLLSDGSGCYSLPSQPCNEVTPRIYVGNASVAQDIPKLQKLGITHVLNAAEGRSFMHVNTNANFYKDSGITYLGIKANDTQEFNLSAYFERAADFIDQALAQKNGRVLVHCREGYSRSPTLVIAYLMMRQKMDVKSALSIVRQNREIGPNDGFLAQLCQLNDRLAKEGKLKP

[9] = molecular target: Tyrosine-protein phosphatase non-receptor type 11 (Homo sapiens, UniProt Q06124); test: PTPN11 enzyme inhibitors – biochemical, selectivity assay for STEP inhibitor project, dose response (AID 602367); assay type: functional; conditions: read-out: IC50_Mean
[10] = molecular target: Tyrosine-protein phosphatase non-receptor type 5 (Homo sapiens, UniProt P54829); test: PTPN5 enzyme inhibition – biochemical, fluorescence intensity, uHTS hits, confirmation (AID 602372); assay type: functional; conditions: read-out: IC50_Mean
[11] = molecular target: Glucose-6-phosphate 1-dehydrogenase (Homo sapiens, UniProt P11413); test: inhibition of Homo sapiens G6PD, dose series – biochemical, fluorescence, selectivity assay for P. falciparum G6PD inhibitor project, dose response (AID 504792); assay type: functional
[12] = microbe, parasite or virus in culture; assay type: functional; conditions: Mycobacterium tuberculosis
[13] = Fluorescence-based cell-based high throughput dose response assay for inhibitors of the interaction of nucleotide-binding oligomerization domain containing 2 (NOD2) and the receptor-interacting serine-threonine kinase 2 (RIPK2).; assay type: functional; conditions: Homo sapiens
Beta Lactamase = Beta Lactamase (Pseudomonas aeruginosa, UniProt Q932Y6); test: BLA reporter interference, concentration series – BLA reporter cells, FRET fluorescence, artefact control for NOD2-RIPK2 interaction inhibitor project, dose response (AID 651552); assay type: functional, cell-based
[14] = Counterscreen for activators of the function of SWI/SNF related, matrix associated, actin dependent regulator of chromatin, subfamily a, member 2 (SMARCA2, BRM): Luminescence-based cell-based high throughput dose response assay to identify non-selective compounds using the VP16 reporter assay.; assay type: functional
[15] = molecular target: SWI/SNF-related matrix-associated actin-dependent regulator of chromatin subfamily A member 2 (Homo sapiens, UniProt P51531); test: Luminescence-based cell-based high throughput dose response assay to identify activators of the function of SWI/SNF related, matrix associated, actin dependent regulator of chromatin, subfamily a, member 2 (SMARCA2, BRM).; assay type: functional
Chain of SWI/SNF-related matrix-associated actin-dependent regulator of chromatin subfamily A member 2 (P51531 whole entry): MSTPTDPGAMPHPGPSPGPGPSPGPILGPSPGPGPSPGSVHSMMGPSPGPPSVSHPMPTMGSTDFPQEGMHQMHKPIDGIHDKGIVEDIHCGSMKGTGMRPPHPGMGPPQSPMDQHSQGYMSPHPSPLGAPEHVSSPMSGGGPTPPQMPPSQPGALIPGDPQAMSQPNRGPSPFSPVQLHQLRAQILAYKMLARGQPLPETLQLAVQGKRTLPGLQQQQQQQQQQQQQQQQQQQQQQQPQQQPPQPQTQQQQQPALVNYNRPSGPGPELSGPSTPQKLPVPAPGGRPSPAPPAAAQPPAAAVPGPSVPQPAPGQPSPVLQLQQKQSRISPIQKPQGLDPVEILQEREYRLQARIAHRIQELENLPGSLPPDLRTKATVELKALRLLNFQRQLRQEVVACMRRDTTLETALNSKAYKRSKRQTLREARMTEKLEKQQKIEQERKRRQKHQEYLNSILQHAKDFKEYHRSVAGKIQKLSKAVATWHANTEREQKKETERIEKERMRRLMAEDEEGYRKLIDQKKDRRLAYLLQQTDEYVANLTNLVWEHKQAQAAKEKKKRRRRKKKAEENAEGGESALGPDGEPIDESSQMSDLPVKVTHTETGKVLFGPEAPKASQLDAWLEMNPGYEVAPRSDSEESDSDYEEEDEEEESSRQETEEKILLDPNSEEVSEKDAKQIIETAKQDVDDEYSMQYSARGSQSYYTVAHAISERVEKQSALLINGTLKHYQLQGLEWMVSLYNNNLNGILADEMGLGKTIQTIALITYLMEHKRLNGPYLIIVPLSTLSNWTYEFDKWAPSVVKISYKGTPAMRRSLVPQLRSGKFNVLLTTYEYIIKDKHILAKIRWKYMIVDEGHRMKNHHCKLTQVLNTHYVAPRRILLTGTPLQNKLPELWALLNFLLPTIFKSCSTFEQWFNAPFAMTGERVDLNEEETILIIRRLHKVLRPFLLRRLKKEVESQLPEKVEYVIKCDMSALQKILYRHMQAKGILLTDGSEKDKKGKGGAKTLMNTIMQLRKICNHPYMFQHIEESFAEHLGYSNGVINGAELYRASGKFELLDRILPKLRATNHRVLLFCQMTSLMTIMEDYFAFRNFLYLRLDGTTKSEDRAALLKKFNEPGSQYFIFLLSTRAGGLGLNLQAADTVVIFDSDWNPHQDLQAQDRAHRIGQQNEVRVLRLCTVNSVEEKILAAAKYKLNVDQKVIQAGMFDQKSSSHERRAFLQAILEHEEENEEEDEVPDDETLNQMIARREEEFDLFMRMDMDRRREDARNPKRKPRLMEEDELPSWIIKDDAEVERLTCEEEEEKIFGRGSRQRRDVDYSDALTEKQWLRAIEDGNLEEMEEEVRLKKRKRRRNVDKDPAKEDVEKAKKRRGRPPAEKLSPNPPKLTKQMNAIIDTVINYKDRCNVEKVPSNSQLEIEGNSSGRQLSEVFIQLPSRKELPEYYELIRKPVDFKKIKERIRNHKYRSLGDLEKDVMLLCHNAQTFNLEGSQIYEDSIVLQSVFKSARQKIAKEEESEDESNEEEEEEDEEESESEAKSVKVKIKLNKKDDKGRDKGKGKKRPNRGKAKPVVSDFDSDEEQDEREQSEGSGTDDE

[16] = molecular target: Fructose-bisphosphate aldolase (Mycobacterium tuberculosis, UniProt P9WQA3); test: Fluorescence-based biochemical high throughput dose response assay for inhibitors of the fructose-bisphosphate aldolase (FBA) of M. tuberculosis.; assay type: functional
Chain of Fructose-bisphosphate aldolase (P9WQA3 whole entry): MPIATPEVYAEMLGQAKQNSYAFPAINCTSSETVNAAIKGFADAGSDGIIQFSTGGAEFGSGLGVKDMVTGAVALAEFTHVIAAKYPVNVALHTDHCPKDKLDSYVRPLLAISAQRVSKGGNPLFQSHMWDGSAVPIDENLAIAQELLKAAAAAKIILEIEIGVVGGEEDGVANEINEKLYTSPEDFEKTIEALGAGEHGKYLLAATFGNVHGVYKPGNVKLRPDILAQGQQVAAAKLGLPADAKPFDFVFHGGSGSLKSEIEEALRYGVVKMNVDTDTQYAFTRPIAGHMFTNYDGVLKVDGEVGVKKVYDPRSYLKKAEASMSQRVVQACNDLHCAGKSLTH

Beta-galactosidase = Beta-galactosidase (Escherichia coli, UniProt Q8VNN2); test: Dose response counterscreen for EBI2 assay utilizing the enzyme, b-galactosidase.; assay type: functional
Chain of Beta-galactosidase (Q8VNN2 whole entry): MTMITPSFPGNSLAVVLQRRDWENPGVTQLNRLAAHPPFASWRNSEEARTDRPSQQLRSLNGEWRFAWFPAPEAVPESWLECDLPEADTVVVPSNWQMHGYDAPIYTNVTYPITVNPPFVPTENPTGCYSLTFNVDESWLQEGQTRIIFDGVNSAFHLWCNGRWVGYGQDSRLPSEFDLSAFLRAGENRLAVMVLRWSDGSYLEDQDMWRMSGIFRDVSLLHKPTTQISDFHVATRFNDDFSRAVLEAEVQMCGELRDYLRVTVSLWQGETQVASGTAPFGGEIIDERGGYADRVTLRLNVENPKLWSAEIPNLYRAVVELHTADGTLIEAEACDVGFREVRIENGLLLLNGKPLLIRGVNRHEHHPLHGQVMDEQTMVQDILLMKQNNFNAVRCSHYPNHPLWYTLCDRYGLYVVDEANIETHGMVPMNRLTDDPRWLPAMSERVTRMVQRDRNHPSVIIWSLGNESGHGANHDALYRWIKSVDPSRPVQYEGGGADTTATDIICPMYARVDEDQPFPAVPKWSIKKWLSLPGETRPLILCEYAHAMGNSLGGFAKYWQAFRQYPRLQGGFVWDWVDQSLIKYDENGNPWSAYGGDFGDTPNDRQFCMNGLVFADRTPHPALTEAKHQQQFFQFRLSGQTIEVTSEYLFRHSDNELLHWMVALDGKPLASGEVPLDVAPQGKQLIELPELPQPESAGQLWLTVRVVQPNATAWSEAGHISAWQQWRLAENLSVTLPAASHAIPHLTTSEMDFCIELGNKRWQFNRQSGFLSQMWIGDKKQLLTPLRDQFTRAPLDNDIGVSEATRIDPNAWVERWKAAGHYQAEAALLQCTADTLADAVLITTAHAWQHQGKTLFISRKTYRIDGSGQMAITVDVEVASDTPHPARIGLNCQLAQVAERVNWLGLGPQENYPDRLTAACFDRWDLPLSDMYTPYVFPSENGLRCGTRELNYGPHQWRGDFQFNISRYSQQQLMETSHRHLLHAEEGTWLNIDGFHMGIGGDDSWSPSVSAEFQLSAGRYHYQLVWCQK

[17] = molecular target: T3, DNA repair and recombination protein RAD54-like (Homo sapiens, UniProt Q92698); test: RAD54 Holliday junction migration blockers – biochemical, fluorescence, cherry-picked samples, dose series, confirmation (AID 651657); assay type: functional
T3 sequence (Q92698 whole entry): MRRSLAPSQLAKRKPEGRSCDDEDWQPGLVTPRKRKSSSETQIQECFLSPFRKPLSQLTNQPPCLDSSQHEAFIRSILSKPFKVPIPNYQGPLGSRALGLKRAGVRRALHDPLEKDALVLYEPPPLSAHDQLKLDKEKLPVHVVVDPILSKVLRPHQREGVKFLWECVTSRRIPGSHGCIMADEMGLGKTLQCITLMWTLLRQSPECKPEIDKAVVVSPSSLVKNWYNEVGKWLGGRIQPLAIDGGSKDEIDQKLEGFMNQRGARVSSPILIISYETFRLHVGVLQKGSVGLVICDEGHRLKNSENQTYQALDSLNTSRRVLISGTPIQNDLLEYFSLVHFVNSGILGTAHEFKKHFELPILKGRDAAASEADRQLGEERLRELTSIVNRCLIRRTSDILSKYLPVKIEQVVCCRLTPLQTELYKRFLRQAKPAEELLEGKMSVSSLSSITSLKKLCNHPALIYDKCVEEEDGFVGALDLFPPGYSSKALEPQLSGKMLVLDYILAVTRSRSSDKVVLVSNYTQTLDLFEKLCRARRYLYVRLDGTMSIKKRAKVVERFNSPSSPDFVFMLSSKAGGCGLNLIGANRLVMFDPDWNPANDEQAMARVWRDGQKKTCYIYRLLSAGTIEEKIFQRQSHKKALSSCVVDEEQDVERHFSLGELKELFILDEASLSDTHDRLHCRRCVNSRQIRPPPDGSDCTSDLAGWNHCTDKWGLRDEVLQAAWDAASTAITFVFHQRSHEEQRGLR

[18] = molecular target: Adenosylmethionine-8-amino-7-oxononanoate aminotransferase (Mycobacterium tuberculosis, UniProt P9WQ81); test: Mycobacterium tuberculosis BioA enzyme inhibitor Measured in Biochemical System Using Plate Reader - 2163-02_Inhibitor_Dose_CherryPick_Activity.; assay type: functional, Mycobacterium tuberculosis UT205
[19] = molecular target: Vascular endothelial growth factor receptor 2 (Homo sapiens, UniProt P35968); assay type: functional
Aurora kinase B = Aurora kinase B (Homo sapiens, UniProt Q96GD4); assay type: functional
Chain of Aurora kinase B (Q96GD4 whole entry): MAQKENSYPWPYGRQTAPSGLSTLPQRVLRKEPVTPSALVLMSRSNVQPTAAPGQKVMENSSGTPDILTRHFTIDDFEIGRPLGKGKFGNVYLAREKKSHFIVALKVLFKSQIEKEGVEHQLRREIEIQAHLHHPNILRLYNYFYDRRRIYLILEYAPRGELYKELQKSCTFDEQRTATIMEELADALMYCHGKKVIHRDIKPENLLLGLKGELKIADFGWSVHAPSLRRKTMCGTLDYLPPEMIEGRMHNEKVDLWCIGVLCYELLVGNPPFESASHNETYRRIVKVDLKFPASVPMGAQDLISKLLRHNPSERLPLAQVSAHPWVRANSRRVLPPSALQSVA

Aurora kinase A = molecular target: T4, Aurora kinase A (Homo sapiens, UniProt O14965); assay type: functional;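 note: value from the Navigating the Kinome kinase panel profiling, panel entry STK6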
T4 sequence (O14965 whole entry): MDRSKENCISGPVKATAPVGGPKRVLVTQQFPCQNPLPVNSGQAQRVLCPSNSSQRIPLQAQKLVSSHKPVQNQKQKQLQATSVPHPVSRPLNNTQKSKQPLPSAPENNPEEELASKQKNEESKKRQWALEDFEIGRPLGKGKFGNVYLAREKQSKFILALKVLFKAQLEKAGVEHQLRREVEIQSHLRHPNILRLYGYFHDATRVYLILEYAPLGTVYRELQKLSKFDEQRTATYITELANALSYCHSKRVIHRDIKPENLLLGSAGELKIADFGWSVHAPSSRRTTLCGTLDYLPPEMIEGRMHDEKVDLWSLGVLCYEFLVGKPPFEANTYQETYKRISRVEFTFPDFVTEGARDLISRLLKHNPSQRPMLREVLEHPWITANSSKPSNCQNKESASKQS

cells = assay type: functional, cell-based; conditions: HEK-CNG
Galanin receptor type 3 = Galanin receptor type 3 (Homo sapiens, UniProt O60755); test: Fluorescence-based cell-based primary high throughput dose response assay to identify antagonists of the Galanin Receptor 3 (GalR3).; assay type: functional
Chain of Galanin receptor type 3 (O60755 whole entry): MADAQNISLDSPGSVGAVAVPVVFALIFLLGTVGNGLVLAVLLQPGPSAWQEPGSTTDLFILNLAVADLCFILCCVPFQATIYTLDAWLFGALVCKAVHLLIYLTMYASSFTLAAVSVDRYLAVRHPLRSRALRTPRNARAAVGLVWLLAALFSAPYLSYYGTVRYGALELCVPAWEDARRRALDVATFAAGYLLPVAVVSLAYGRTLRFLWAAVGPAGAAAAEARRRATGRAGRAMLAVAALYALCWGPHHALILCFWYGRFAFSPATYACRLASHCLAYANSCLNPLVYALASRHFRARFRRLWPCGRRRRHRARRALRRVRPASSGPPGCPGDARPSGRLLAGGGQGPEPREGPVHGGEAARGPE

[20] = molecular target: Peroxisome proliferator-activated receptor gamma/Nuclear receptor coactivator 3 (Homo sapiens, UniProt P37231); test: TR-FRET dose response biochemical High Throughput Screening assay for agonists of the steroid receptor coactivator 3 (SRC-3) recruitment by the peroxisome proliferator-activated receptor gamma (PPAR gamma): non-selective agonists. [Related pubchem assays: 1301 (Confirmation screen.), 1048 (Primary screen.)]; assay type: functional
[21] = molecular target: Peroxisome proliferator-activated receptor gamma/Nuclear receptor coactivator 1 (Homo sapiens, UniProt P37231); test: TR-FRET dose response biochemical High Throughput Screening assay for agonists of the steroid receptor coactivator 1 (SRC-1) recruitment by the peroxisome proliferator-activated receptor gamma (PPAR gamma): non-selective agonists. [Related pubchem assays (depositor defined):AID1300, AID1808, AID504735, AID631]; assay type: protein assay
[22] = molecular target: Peroxisome proliferator-activated receptor gamma/Nuclear receptor coactivator 2 (Homo sapiens, UniProt P37231); test: TR-FRET dose response biochemical High Throughput Screening assay for agonists of the steroid receptor coactivator 2 (SRC-2) recruitment by the peroxisome proliferator-activated receptor gamma (PPAR gamma): non-selective agonists. [Related pubchem assays: 1297, 1032 ]; assay type: functional
[23] = Counterscreen for inhibitors of Trypanosoma brucei methionyl tRNA synthetase (MetRS): Luminescence-based cell-based high throughput dose response assay to identify compounds that are cytotoxic to Jurkat human T lymphocyte cells.; assay type: functional

## O=C(COC(=O)c1ccc(Cl)nc1)Nc1nnc(-c2ccccc2)o1
[1]
  AC50: 115 µM (active)

## O=C(Nc1cc(F)cc(F)c1)c1ccc(NCCc2ccccc2)c([N+](=O)[O-])c1
[2]
  EC50: > 99 µM (inactive)
[3]
  IC50: 14 µM (active)
[4]
  IC50: 26.2 µM (inactive)
[5]
  EC50: 88.4 µM (inactive)

## CC(C)CCN=C(S)Nc1ccc2nc3n(c(=O)c2c1)CCCCC3
[6]
  AC50: 39.4 µM (active)

## CC(C)(C)NC(=O)C(c1ccccc1F)n1c(=O)c(-c2ccco2)nc2ccccc21 (stereo unspecified)
[7]
  IC50: 1.85 µM (active)

## O=S(=O)(Nc1ccc(Cl)cc1)c1ccc(N2CCOCC2)c(NC(=S)NCCN2CCOCC2)c1
[8]
  IC50: 0.342 µM (active)
[9]
  IC50: 1.1 µM (active)
[10]
  IC50: 8.03 µM (active)
[11]
  IC50: > 80 µM (inactive)

## Cc1ccc(-n2nc3c(N4CCC(C(=O)NCc5ccccc5C)CC4)nnc(C)c3c2C)cc1
[12]
  CC50: 27.8 µM (active)
[13]
  IC50: 8.76 µM (active)
Beta Lactamase
  IC50: 16.2 µM (inactive)

## CC(=O)c1cccc(-c2cnc3c(NC=O)cc(-c4ccc(N5CCN(C)CC5)cc4)cn23)c1
[14]
  EC50: > 91.2 µM (inactive)
[15]
  EC50: > 30.4 µM (inactive)

## CN1Cc2c(N3CCOCC3)nc3sc(C#N)c(N)c3c2CC1(C)C
[16]
  IC50: 1.06 µM (active)

## COC(=O)Nc1nnc(-c2ccccc2OC)s1
[16]
  IC50: 1.9 µM (active)

## Oc1nc2ccccc2nc1-c1cccs1
[14]
  EC50: > 91.1 µM (inactive)

## COc1ccc([C@H]2CC(=O)C=C(C#CC(C)(C)C)C2)cc1
Beta-galactosidase
  IC50: > 80 µM (inactive)

## CCN(CC)CCNc1ccc(CO)c2oc3ccccc3c(=O)c12
[17]
  AC50: 18.7 µM (active)
[3]
  IC50: 28.4 µM (inactive)
[4]
  IC50: 22.3 µM (inactive)

## CCn1c(=O)c(=O)n(CC)c2cc(S(=O)(=O)Nc3cc(C)ccc3C)ccc21
[18]
  AC50: 13.6 µM (active)

## O=c1[nH]c2ccccc2nc1-c1cccs1
[15]
  EC50: > 91.1 µM (inactive)

## CCCCCCNc1cc2n(c(=O)n1)CCc1cc(OC)c(OC)cc1-2
[1]
  AC50: 101 µM (active)

## COc1cccc(S(=O)(=O)Nc2ccc3c(c2)C(=NO)c2ccccc2-3)c1
[19]
  Ki: 3.98 µM (active) and 794 nM (active)
Aurora kinase B
  Ki: 6.31 nM (active) and 15.8 nM (active)
Aurora kinase A
  Ki: > 2 µM (inactive) and 2 µM (active)

## Nc1ncnc2c1ncn2[C@@H]1O[C@H](CNCc2ccc(OCC(=O)Nc3nccs3)cc2)[C@@H](O)[C@H]1O
[6]
  AC50: 32.3 µM (active)

## COc1ccc(C(=O)Nc2cccc(NC(=O)c3cccs3)c2)cc1
[18]
  AC50: 4.26 µM (active)

## COc1ccc(/C=C\C(=O)CC(O)(c2ccccc2)C(F)(F)F)cc1 (stereo unspecified)
[7]
  IC50: 3.93 µM (active)

## CSc1nc(N)c(C#N)c(-c2ccccc2Cl)c1C#N
cells
  EC50: > 29.9 µM (inactive)
Galanin receptor type 3
  IC50: 7.09 µM (active)

## O=C(c1cc2ccccc2o1)N1CCN(S(=O)(=O)c2ccc(F)c(F)c2F)CC1
Beta-galactosidase
  IC50: > 80 µM (inactive)

## NC(=O)c1cn(-c2ccccc2)nc1-c1cc2ccccc2oc1=O
cells
  EC50: > 29.9 µM (inactive)
Galanin receptor type 3
  IC50: 13 µM (inactive)

## N#Cc1ccccc1CSc1ccc(-c2nc3ccccc3[nH]2)cn1
[20]
  EC50: > 79.4 µM (not active)
[21]
  EC50: > 79.4 µM (inactive)
[22]
  EC50: > 79.4 µM (not active)
[23]
  IC50: 26.5 µM (inactive)
